Tests used:
human MCH-1 receptor = human MCH-1 receptor (Homo sapiens (Human), UniProt Q99705); assay: Binding Assay for Human Melanin-Concentrating Hormone (MCH-1) Receptor; conditions: radioligand displacement, membranes from CHO-K1 cells expressing human MCH-1 receptor; Ki from IC50 by Cheng Prusoff equation; read-out: MCH1 Ki
Outline: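 Membranes from CHO-K1 cells stably expressing human MCH-1 incubated 60 min at 25 °C with 1.4 nM tritiated indazolyl-pyridinone radioligand in 50 mM Tris-HCl pH 7.4. Bound counts by filtration and scintillation; IC50 and nH by Hill fit, Ki by Cheng–Prusoff.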

human MCH-1 receptor, sequence (Q99705 whole entry): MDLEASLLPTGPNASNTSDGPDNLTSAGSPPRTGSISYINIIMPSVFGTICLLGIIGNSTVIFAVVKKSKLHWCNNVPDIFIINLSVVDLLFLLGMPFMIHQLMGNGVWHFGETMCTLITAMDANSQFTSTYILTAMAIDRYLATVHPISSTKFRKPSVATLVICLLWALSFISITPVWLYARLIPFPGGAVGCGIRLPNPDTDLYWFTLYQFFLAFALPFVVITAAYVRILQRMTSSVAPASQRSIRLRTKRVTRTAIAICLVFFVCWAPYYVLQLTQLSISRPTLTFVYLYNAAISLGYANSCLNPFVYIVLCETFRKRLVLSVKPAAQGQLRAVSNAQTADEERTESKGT

Row | SMILES | melting point | Ki (human MCH-1 receptor) [nM]
1 | Cl.Cn1c2c(c3ccc(-n4ccc(OCc5ccc(F)cn5)cc4=O)nc31)CCNCC2 [Example 81, 4-((5-Fluoropyridin-2-yl)methoxy)-1-(10-methyl-5,6,7,8,9,10-hexahydropyrido[3′,2′:4,5]pyrrolo[2,3-d]azepin-2-yl)pyridin-2(1H)-one hydrochloride] | 238 to 240 °C | 33
2 | Cl.Cn1c2c(c3ccc(-n4ncc(OCc5ccc(F)cn5)cc4=O)nc31)CCNCC2 [Example 82, 5-((5-Fluoropyridin-2-yl)methoxy)-2-(10-methyl-5,6,7,8,9,10-hexahydropyrido[3′,2′:4,5]pyrrolo[2,3-d]azepin-2-yl)pyridazin-3(2H)-one hydrochloride] | 226 to 230 °C (dec.) | 53
3 | Cl.Cn1c2c(c3ccc(-n4ccc(-c5ccc(C(F)(F)F)nc5)cc4=O)nc31)CNCCC2 [Example 89, 1-(10-Methyl-5,6,7,8,9,10-hexahydropyrido[3′,2′:4,5]pyrrolo[3,2-c]azepin-2-yl)-4-(6-(trifluoromethyl)pyridin-3-yl)pyridin-2(1H)-one hydrochloride] | 308 to 312 °C | 15
4 | Cl.Cn1c2c(c3ccc(-n4ccc(OCc5ccccc5)cc4=O)nc31)CNCCC2 [Example 90, 4-(Benzyloxy)-1-(10-methyl-5,6,7,8,9,10-hexahydropyrido[3′,2′:4,5]pyrrolo[3,2-c]azepin-2-yl)pyridin-2(1H)-one hydrochloride] | 328 to 332 °C | 6.4

Continued, values first:

Row | melting point | Ki (human MCH-1 receptor) [nM] | SMILES
5 | 215 to 225 °C | 22 | Cl.Cn1c2c(c3ccc(-n4ccc(OCc5ncc(F)cc5F)cc4=O)cc31)CCNCC2 [Example 102, 4-((3,5-Difluoropyridin-2-yl)methoxy)-1-(6-methyl-1,2,3,4,5,6-hexahydroazepino[4,5-b]indol-8-yl)pyridin-2(1H)-one hydrochloride]
6 | 180 to 190 °C | 18 | Cl.Cn1c2c(c3ccc(-n4ccc(OCc5ncc(F)cc5F)cc4=O)cc31)CNCCC2 [Example 106, 4-((3,5-Difluoropyridin-2-yl)methoxy)-1-(6-methyl-1,2,3,4,5,6-hexahydroazepino[4,3-b]indol-8-yl)pyridin-2(1H)-one hydrochloride]
